{"source": "paper PMC6982022", "about": "(International Journal of Molecular Sciences, 2019)", "key": {"C57BL6J mice": {"system": "C57BL6J mice", "experiment": "Testis histology (H&E) after 35 days oral dosing", "format": "in vivo, mouse", "conditions": "15, 25 or 50 mg/kg, oral daily", "protocol": "Groups of six mice, each, were used for three different doses of NB-DNJ or NB-DGJ formulated in milliQ water at 50 mg/kg, 25 mg/kg and 15 mg/kg, respectively. Control groups were given an equivalent volume of water. Animals were given compound or control once daily for 35 consecutive days via oral gavage using animal feeding needles (Biomedical Needles, Popper, NY, USA). Body weight was noted every week for all treatment groups. Mice were euthanized at the end of a 35 days dosing regimen using CO2 asphyxia followed by cervical dislocation. Testes were harvested, weighed and stored in Bouin’s fixative for 48 h, then sliced into two halves, and stored in fresh Bouin’s for another 24 h. The tissue slices were then rinsed in 70% ethanol and processed and stained for histology using a standard protocol for Hematoxylin and eosin staining. Spermatids with elongated and abnormally shaped heads were counted per 20 fields and average number calculated for 6 mice/group."}, "male CD rats [1]": {"system": "male CD rats", "experiment": "Rat mating trial (fertility)", "format": "in vivo", "conditions": "for Conceptus, mean abnormal / Fertile/Mated / Conceptus, mean normal: 150 mg/kg/day oral days 0-34", "protocol": "Eighteen adult male CD rats were divided into three groups of six rats each. One group of six CD rats was treated with vehicle (distilled water containing 0.9% benzyl alcohol) via oral gavage (5 mL/kg/day), and the second group (6 rats) was treated with NB-DGJ (in distilled water containing 0.9% benzyl alcohol) via oral gavage at 150 mg/kg/day (in approximately 5 mL/kg of water) daily for 35 consecutive days. The third group (6 rats) was treated with 15 mg/kg NB-DNJ in distilled water containing 0.9% benzyl alcohol) via oral gavage (in approximately 5 mL/kg of water) daily for 35 consecutive days (Figure S5).\n(§1) Rats were weighed on day 0 (first day of dosing) and weekly thereafter. Dosages were adjusted based on the most recent body weight. Males were cohabited with untreated females (one male per two females) weekly at weeks 1 through 9 [38, 39]. Females were necropsied seven days after separation from males to determine the numbers of implantation sites. Individual male rats were bled from the tail vein at weeks 0, 1, 4, and 7 and serum was harvested by centrifugation. At week 11, the male rats were weighed, anesthetized, and exsanguinated. Sera were analyzed for inhibin B by ELISA (enzyme-linked immunosorbent assay), and rat follicle stimulating hormone (rFSH) and testosterone by radioimmunoassay. Testes, epididymides, ventral prostates, and seminal vesicles were excised and weighed. The left testis was homogenized, and spermatid head counts obtained.\n(§2) Statistical analysis using the Student’s t-test was performed on body weights, paired testes weights, ventral prostrate weights, seminal vesicle weights, paired epididymal weights, spermatid head counts, percent motile and normal epididymal sperm. We used analysis of variance (ANOVA) for serum inhibin B, rFSH, and testosterone, since these measurements were repeated throughout the study period. The effect of NB-DNJ at 15 mg/kg/day dose in the rat model was studied following the same protocol as that for NB-DGJ."}, "adult male CD rats": {"system": "adult male CD rats", "experiment": "Parameters measured at necropsy at end of fertility trial (week 11)", "format": "in vivo, rat", "description": "as §1\nSperm were obtained from the left cauda epididymis and evaluated for sperm motility, as follows. The cauda epididymis was punctured with an 18-gauge needle and sperm expressed into the well of a culture slide. The sperm were diluted with capacitation buffer containing 0.1% BSA to obtain about 20–40 sperm per field as viewed in the inverted microscope. The number of motile and non-motile sperm was determined, and the percent of motile sperm were calculated. A smear of the diluted sperm was also prepared and used to assess sperm morphology under phase contrast. The percent of normal/abnormal sperm were calculated.\nas §2"}, "male CD rats [2]": {"system": "male CD rats", "experiment": "Serum hormone levels during mating trial", "format": "in vivo, rat", "conditions": "150 mg/kg/day; weeks 0, 1, 4 and 7; ANOVA", "description": "as §1, §2"}, "CGT": {"system": "CGT", "conditions": "cited from earlier work"}, "C57BL/6 mice": {"system": "C57BL/6 mice", "conditions": "cited from earlier work"}, "[3]": {"conditions": "150 mg/kg/day on days 0-34, week 11, n = 6"}}, "note": "“And” between values parts separate entries of the source, which are not always exact repeats. Equal values may be shown once. “Also recorded” adds a separate entry of the source. Read-outs that look alike come from different tables or passages of the source."}
{"compound": "CCCCN1C[C@H](O)[C@@H](O)[C@@H](O)[C@H]1CO", "note": "[NB-DGJ, N-butyldeoxygalactonojirimycin]", "values": [{"measurement": "Testis histology, spermatid heads (in words)", "setting": "C57BL6J mice", "value": "rounded, abnormally shaped spermatid heads"}, {"measurement": "Treatment time after which fertility was blocked", "setting": "male CD rats [1]; 150 mg/kg/day oral", "value": 35, "unit": "days"}, {"measurement": "Conceptus, mean abnormal", "setting": "male CD rats [1]; week of study 1", "value": 0.3}, {"measurement": "Fertile/Mated", "setting": "male CD rats [1]; week of study 1", "value": "6/6"}, {"measurement": "Conceptus, mean normal", "setting": "male CD rats [1]; week of study 1, both females per male", "value": 14}, {"measurement": "Conceptus, mean abnormal", "setting": "male CD rats [1]; week of study 2", "value": 0.1}, {"measurement": "Conceptus, mean normal", "setting": "male CD rats [1]; week of study 2", "value": 6}, {"measurement": "Fertile/Mated", "setting": "male CD rats [1]; week of study 2", "value": "6/6"}, {"measurement": "Conceptus, mean abnormal", "setting": "male CD rats [1]; week of study 3", "value": 0}, {"measurement": "Conceptus, mean normal", "setting": "male CD rats [1]; week of study 3", "value": 1}, {"measurement": "Fertile/Mated", "setting": "male CD rats [1]; week of study 3", "value": "3/6"}, {"measurement": "Conceptus, mean abnormal", "setting": "male CD rats [1]; week of study 4", "value": "0/0"}, {"measurement": "Conceptus, mean normal", "setting": "male CD rats [1]; week of study 4", "value": "0/0"}, {"measurement": "Fertile/Mated", "setting": "male CD rats [1]; week of study 4", "value": "0/6"}, {"measurement": "Conceptus, mean abnormal", "setting": "male CD rats [1]; week of study 5", "value": 2}, {"measurement": "Fertile/Mated", "setting": "male CD rats [1]; week of study 5", "value": "6/6"}, {"measurement": "Conceptus, mean normal", "setting": "male CD rats [1]; week of study 5 (after termination of dosing)", "value": 10}, {"measurement": "Conceptus, mean abnormal", "setting": "male CD rats [1]; week of study 6", "value": 0.3}, {"measurement": "Conceptus, mean normal", "setting": "male CD rats [1]; week of study 6", "value": 13}, {"measurement": "Fertile/Mated", "setting": "male CD rats [1]; week of study 6", "value": "6/6"}, {"measurement": "Conceptus, mean abnormal", "setting": "male CD rats [1]; week of study 7", "value": 0.3}, {"measurement": "Conceptus, mean normal", "setting": "male CD rats [1]; week of study 7", "value": 13}, {"measurement": "Fertile/Mated", "setting": "male CD rats [1]; week of study 7", "value": "6/6"}, {"measurement": "Conceptus, mean abnormal", "setting": "male CD rats [1]; week of study 8", "value": 0.3}, {"measurement": "Conceptus, mean normal", "setting": "male CD rats [1]; week of study 8", "value": 14}, {"measurement": "Fertile/Mated", "setting": "male CD rats [1]; week of study 8", "value": "6/6"}, {"measurement": "Conceptus, mean abnormal", "setting": "male CD rats [1]; week of study 9", "value": 0.5}, {"measurement": "Conceptus, mean normal", "setting": "male CD rats [1]; week of study 9", "value": 13}, {"measurement": "Fertile/Mated", "setting": "male CD rats [1]; week of study 9", "value": "6/6"}, {"measurement": "Return of fertility after termination of dosing", "setting": "male CD rats [1]; 150 mg/kg/day oral for 35 days", "value": "within one week"}, {"measurement": "Reduction of numbers of normal conceptuses", "setting": "male CD rats [1]; 150 mg/kg/day oral, second week", "value": 50, "unit": "%"}, {"measurement": "Treated rats infertile", "setting": "male CD rats [1]; 150 mg/kg/day oral, week four", "value": 100, "unit": "%"}, {"measurement": "Treated rats rendered infertile", "setting": "male CD rats [1]; 150 mg/kg/day oral, week three", "value": 50, "unit": "%"}, {"measurement": "Effect on fertility (in words)", "setting": "male CD rats [1]; 150 mg/kg/day, daily single oral dose, 35 days", "value": "induced reversible infertility; also recorded: caused reversible infertility"}, {"measurement": "Adverse effects in treated animals", "setting": "male CD rats [1]; daily dose of 150 mg/kg, 35 days", "value": "lack of adverse effects"}, {"measurement": "Final Body Weight Week 11 (g ± SE)", "setting": "adult male CD rats; 150 mg/kg/day on days 0-34, n = 6", "value": "572 ± 17", "unit": "g"}, {"measurement": "Ventral prostate weight versus vehicle", "setting": "adult male CD rats; 150 mg/kg/day on days 0-34, week 11, Student's t-test", "value": "No significant difference"}, {"measurement": "Mean Epididymal Sperm Motility (%)", "setting": "adult male CD rats; [3]", "value": "60% and 60 ± 3 %"}, {"measurement": "Mean Epididymal Sperm with Normal Morphology (% ± SE)", "setting": "adult male CD rats; [3]", "value": "72 ± 1", "unit": "%"}, {"measurement": "Mean Paired Epididymal Weight (g ± SE)", "setting": "adult male CD rats; [3]", "value": "1.64 ± 0.03", "unit": "g"}, {"measurement": "Mean Paired Testis Weight (g ± SE)", "setting": "adult male CD rats; [3]", "value": "3.80 ± 0.11", "unit": "g"}, {"measurement": "Mean Seminal Vesicle Weight with Coagulating Gland", "setting": "adult male CD rats; [3]", "value": "1.40 ± 0.11", "unit": "g"}, {"measurement": "Mean Spermatid Head Count/Testis", "setting": "adult male CD rats; [3]", "value": "123.59 ± 3.73", "unit": "Cells × 10^6"}, {"measurement": "Serum inhibin B versus control", "setting": "male CD rats [2]", "value": "No significant differences"}, {"measurement": "Serum rFSH versus control", "setting": "male CD rats [2]", "value": "No significant differences"}, {"measurement": "Serum testosterone versus control", "setting": "male CD rats [2]", "value": "No significant differences"}, {"measurement": "IC50", "setting": "CGT; ref 20", "value": 41.4, "unit": "µM"}, {"measurement": "IC50", "setting": "CGT; ref 36", "value": 10, "unit": "µM"}, {"measurement": "Effect on fertility (in words)", "setting": "C57BL/6 mice; C57BL/6J male mice, 150 mg/kg", "value": "reversible infertility"}, {"measurement": "Time for fertility to resume", "setting": "C57BL/6 mice; C57BL/6J mice", "value": "approximately three weeks"}, {"measurement": "Testicular histology, spermiogenesis (in words)", "setting": "C57BL/6 mice; dose equivalent to 1200 mg/kg of NB-DNJ", "value": "disrupts spermiogenesis"}]}
